“Also recorded” adds a separate entry of the source.
Legend:
[1] = pharmacokinetics, blood content and blood brain barrier penetration after sc administration; details: rats, 2.0 mg/kg sc
Male Sprague Dawley rats = details: rat, in vivo
Description: Male Sprague Dawley rats obtained from Charles River (Portage, Mich.) and weighing 200-225 g at their arrival were used in this study. Rats were housed in groups of two in a room with a reverse 12 h light/12 h dark cycle (lights off at 07:30 AM). All experiments were conducted during the dark phase of the cycle. Animals were acclimatized for 7 days with water and chow (Teklad Diets, Madison, Wis.) and handled for 3 times before the experiments were started. Throughout all operant procedures, rats were food restricted (received 20 g of chow daily) with water freely accessible.
5 was dissolved in a vehicle of 0.9% saline and injected subcutaneously at doses of (0.0, 0.3, 1.0 mg/kg). The injection volume was 1 ml/kg. […] (−)-Nicotine hydrogen tartrate salt and alcohol were purchased from Sigma (St. Louis, Mo.). Alcohol was diluted to a concentration of 10% v/v in water and made available orally. Nicotine solution for i.v. injection (30 micrograms/kg/0.1 ml infusion) was obtained by dissolving the salt in 0.9% saline and the pH adjusted to 7.0-7.4 with 3 M sodium hydroxide. Nicotine self-administration dose is reported as free base concentration.
The self-administration boxes consisted of operant conditioning chambers (Med Associates, Inc., St. Albans, Vt.) enclosed in lit, sound attenuating, ventilated environmental cubicles. […]

[2] = smoking cessation; cited from earlier work

SMILES | time to maximal concentration in blood and brain [1] | nicotine self-administration analysed in 30-min intervals (Male Sprague Dawley rats) | cessation rates in most clinical trials [2]
C[C@H]1CNC(=N)N1CCc1cccnc1 [Compound 5, (S)-5-Methyl-1-(2-(pyridin-3-yl)ethyl)imidazolidin-2-imine] | ≤ 10 min | decreased nicotine self-administration during the first 30 min but not during the remaining 90-min period; also recorded: reducing nicotine self-administration only in the first 30 min | –
CC(NC(C)(C)C)C(=O)c1cccc(Cl)c1 (stereo not shown) [bupropion] | – | – | 15-25%
c1cnc2cc3c(cc2n1)[C@@H]1CNC[C@H]3C1 [varenicline] | – | – | 23-40%
